Laboratory results reported in PubChem BioAssay (NCI).
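The compound was tested at five concentrations on cells cultured in 96-well plates, with a 48-hour exposure period. TGI: total growth inhibition.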 Where a SMILES comes first, the peptide text is derived from it. The star is where a group is joined. Boc = CC(C)(C)OC(=O)*

How the values were obtained:
Test in all cases: NCI-60 cell line screen, 48 h
786-0 renal = test system: 786-0 renal
A498 renal = test system: A498 renal
CAKI-1 renal = test system: CAKI-1 renal
CCRF-CEM leukemia = test system: CCRF-CEM leukemia
COLO 205 colon = test system: COLO 205 colon
DLD-1 colon = test system: DLD-1 colon
DMS 114 small cell lung = test system: DMS 114 small cell lung
DMS 273 small cell lung = test system: DMS 273 small cell lung
HCC-2998 colon = test system: HCC-2998 colon
HCT-116 colon = test system: HCT-116 colon
HL-60(TB) leukemia = test system: HL-60(TB) leukemia
HOP-62 NSCLC = test system: HOP-62 NSCLC
HOP-92 NSCLC = test system: HOP-92 NSCLC
IGROV1 ovarian = test system: IGROV1 ovarian
K-562 leukemia = test system: K-562 leukemia
LOX IMVI melanoma = test system: LOX IMVI melanoma
LXFL 529 NSCLC = test system: LXFL 529 NSCLC
M14 melanoma = test system: M14 melanoma
M19-MEL melanoma = test system: M19-MEL melanoma
MALME-3M melanoma = test system: MALME-3M melanoma
MOLT-4 leukemia = test system: MOLT-4 leukemia
NCI-H226 lung = test system: NCI-H226 lung
NCI-H23 lung = test system: NCI-H23 lung
NCI-H460 lung = test system: NCI-H460 lung
NCI-H522 lung = test system: NCI-H522 lung
OVCAR-4 ovarian = test system: OVCAR-4 ovarian
RPMI-8226 leukemia = test system: RPMI-8226 leukemia
RXF-631 renal = test system: RXF-631 renal
SF-268 CNS = test system: SF-268 CNS
SF-539 CNS = test system: SF-539 CNS
SK-MEL-2 melanoma = test system: SK-MEL-2 melanoma
SK-MEL-28 melanoma = test system: SK-MEL-28 melanoma
SK-OV-3 ovarian = test system: SK-OV-3 ovarian
SN12C renal = test system: SN12C renal
SNB-75 CNS = test system: SNB-75 CNS
SNB-78 CNS = test system: SNB-78 CNS
SR leukemia = test system: SR leukemia
UACC-62 melanoma = test system: UACC-62 melanoma
UO-31 renal = test system: UO-31 renal
XF 498 CNS = test system: XF 498 CNS
A549 NSCLC = test system: A549 NSCLC
ACHN renal = test system: ACHN renal
BT-549 breast = test system: BT-549 breast
DU-145 prostate = test system: DU-145 prostate
EKVX NSCLC = test system: EKVX NSCLC
HCT-15 colon = test system: HCT-15 colon
HOP-18 NSCLC = test system: HOP-18 NSCLC
HS 578T breast = test system: HS 578T breast
HT29 colon = test system: HT29 colon
KM12 colon = test system: KM12 colon
KM20L2 colon = test system: KM20L2 colon
MCF7 breast = test system: MCF7 breast
MDA-MB-231 breast = test system: MDA-MB-231 breast
MDA-MB-435 = test system: MDA-MB-435
MDA-N = test system: MDA-N
NCI/ADR-RES ovarian = test system: NCI/ADR-RES ovarian
OVCAR-3 ovarian = test system: OVCAR-3 ovarian
OVCAR-5 ovarian = test system: OVCAR-5 ovarian
OVCAR-8 ovarian = test system: OVCAR-8 ovarian
PC-3 prostate = test system: PC-3 prostate
RXF 393 renal = test system: RXF 393 renal
SF-295 CNS = test system: SF-295 CNS
SK-MEL-5 melanoma = test system: SK-MEL-5 melanoma
SNB-19 CNS = test system: SNB-19 CNS
SW-620 colon = test system: SW-620 colon
T-47D breast = test system: T-47D breast
TK-10 renal = test system: TK-10 renal
U251 CNS = test system: U251 CNS
UACC-257 melanoma = test system: UACC-257 melanoma

## CSCCC(NC(=O)C(CC(C)C)NC(=O)C1CCCN1C(=O)C(Cc1ccccc1)NC(=O)C(Cc1ccccc1)NC(=O)C(CCC(=O)O)NC(=O)OC(C)(C)C)C(N)=O (stereo unspecified) (Boc-EFFPLM-NH2; configuration not given here)
786-0 renal
  TGI: > 100 µM
A498 renal
  TGI: > 100 µM
CAKI-1 renal
  TGI: > 100 µM
CCRF-CEM leukemia
  TGI: > 100 µM
COLO 205 colon
  TGI: > 100 µM
DLD-1 colon
  TGI: > 100 µM
DMS 114 small cell lung
  TGI: > 100 µM
DMS 273 small cell lung
  TGI: > 100 µM
HCC-2998 colon
  TGI: > 100 µM
HCT-116 colon
  TGI: > 100 µM
HL-60(TB) leukemia
  TGI: > 100 µM
HOP-62 NSCLC
  TGI: > 100 µM
HOP-92 NSCLC
  TGI: > 100 µM
IGROV1 ovarian
  TGI: > 100 µM
K-562 leukemia
  TGI: > 100 µM
LOX IMVI melanoma
  TGI: > 100 µM
LXFL 529 NSCLC
  TGI: > 100 µM
M14 melanoma
  TGI: > 100 µM
M19-MEL melanoma
  TGI: > 100 µM
MALME-3M melanoma
  TGI: > 100 µM
MOLT-4 leukemia
  TGI: > 100 µM
NCI-H226 lung
  TGI: > 100 µM
NCI-H23 lung
  TGI: > 100 µM
NCI-H460 lung
  TGI: > 100 µM
NCI-H522 lung
  TGI: > 100 µM
OVCAR-4 ovarian
  TGI: > 100 µM
RPMI-8226 leukemia
  TGI: > 100 µM
RXF-631 renal
  TGI: > 100 µM
SF-268 CNS
  TGI: > 100 µM
SF-539 CNS
  TGI: > 100 µM
SK-MEL-2 melanoma
  TGI: > 100 µM
SK-MEL-28 melanoma
  TGI: > 100 µM
SK-OV-3 ovarian
  TGI: > 100 µM
SN12C renal
  TGI: > 100 µM
SNB-75 CNS
  TGI: > 100 µM
SNB-78 CNS
  TGI: > 100 µM
SR leukemia
  TGI: > 100 µM
UACC-62 melanoma
  TGI: > 100 µM
UO-31 renal
  TGI: > 100 µM
XF 498 CNS
  TGI: > 100 µM

## CN(C)C(=S)/N=c1\ssc(=S)n1Cc1cccs1
786-0 renal
  TGI: 52.5 µM
A498 renal
  TGI: > 100 µM
A549 NSCLC
  TGI: > 91.4 µM
ACHN renal
  TGI: > 100 µM
BT-549 breast
  TGI: > 100 µM
CAKI-1 renal
  TGI: > 91.4 µM
CCRF-CEM leukemia
  TGI: > 60.2 µM
COLO 205 colon
  TGI: 6.41 µM
DLD-1 colon
  TGI: > 100 µM
DMS 114 small cell lung
  TGI: 5.6 µM
DU-145 prostate
  TGI: > 100 µM
EKVX NSCLC
  TGI: > 94.6 µM
HCC-2998 colon
  TGI: > 100 µM
HCT-116 colon
  TGI: > 69.6 µM
HCT-15 colon
  TGI: > 100 µM
HL-60(TB) leukemia
  TGI: 13.9 µM
HOP-18 NSCLC
  TGI: > 100 µM
HOP-62 NSCLC
  TGI: 81.3 µM
HOP-92 NSCLC
  TGI: > 89.1 µM
HS 578T breast
  TGI: 5.17 µM
HT29 colon
  TGI: > 100 µM
IGROV1 ovarian
  TGI: > 100 µM
K-562 leukemia
  TGI: > 55.8 µM
KM12 colon
  TGI: > 100 µM
KM20L2 colon
  TGI: 3.57 µM
LOX IMVI melanoma
  TGI: > 100 µM
LXFL 529 NSCLC
  TGI: > 100 µM
M14 melanoma
  TGI: > 100 µM
M19-MEL melanoma
  TGI: > 100 µM
MALME-3M melanoma
  TGI: 74.7 µM
MCF7 breast
  TGI: > 30.4 µM
MDA-MB-231 breast
  TGI: > 100 µM
MDA-MB-435
  TGI: 2.71 µM
MDA-N
  TGI: 2.85 µM
MOLT-4 leukemia
  TGI: > 100 µM
NCI-H226 lung
  TGI: > 100 µM
NCI-H23 lung
  TGI: > 100 µM
NCI-H460 lung
  TGI: > 89.7 µM
NCI-H522 lung
  TGI: 9.6 µM
NCI/ADR-RES ovarian
  TGI: 5.1 µM
OVCAR-3 ovarian
  TGI: 6.57 µM
OVCAR-4 ovarian
  TGI: > 91.7 µM
OVCAR-5 ovarian
  TGI: > 100 µM
OVCAR-8 ovarian
  TGI: 52.9 µM
PC-3 prostate
  TGI: > 100 µM
RPMI-8226 leukemia
  TGI: > 100 µM
RXF 393 renal
  TGI: 23.9 µM
SF-268 CNS
  TGI: > 100 µM
SF-295 CNS
  TGI: 21.8 µM
SF-539 CNS
  TGI: 15.1 µM
SK-MEL-2 melanoma
  TGI: 25.7 µM
SK-MEL-28 melanoma
  TGI: > 100 µM
SK-MEL-5 melanoma
  TGI: > 16.1 µM
SK-OV-3 ovarian
  TGI: > 90 µM
SN12C renal
  TGI: > 100 µM
SNB-19 CNS
  TGI: > 90.9 µM
SNB-75 CNS
  TGI: 15.2 µM
SNB-78 CNS
  TGI: > 100 µM
SR leukemia
  TGI: > 100 µM
SW-620 colon
  TGI: > 100 µM
T-47D breast
  TGI: > 100 µM
TK-10 renal
  TGI: > 81.6 µM
U251 CNS
  TGI: 69.9 µM
UACC-257 melanoma
  TGI: > 75.4 µM
UACC-62 melanoma
  TGI: > 56.7 µM
UO-31 renal
  TGI: > 100 µM
